# The supplement of paper PMC10307832
# Columns and labels:
# Test in all cases: relative viability (nuclei count vs DMSO), 5 days (fraction); higher = more cells survive
# [1] = compound: CC1=C(C(=NN1)C)CC2=C(C3=C(S2)N(C(=O)N(C3=O)C)CC(C)C)C(=O)N4C[C@@H](CO4)O + NC(=O)Nc1cc(-c2cccc(F)c2)sc1C(=O)N[C@H]1CCCNC1 [AZD7762] (partner 0.2 µM)
# Procedure, shortened: (§1)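 Relative viability was taken as the ratio of nuclei in treated wells to nuclei in vehicle wells. Lung cancer cell lines in 1536-well plates received compounds by pin tool one day after seeding, either one drug alone or a fixed anchor-drug dose plus five library-drug doses (not always all listed) in √10 steps. Nuclei were counted on 4× images after 5 days of treatment, and values are medians of duplicate plates.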
# [2] = compound: CC1=C(C(=NN1)C)CC2=C(C3=C(S2)N(C(=O)N(C3=O)C)CC(C)C)C(=O)N4C[C@@H](CO4)O + O=C(c1cc(Cc2n[nH]c(=O)c3ccccc23)ccc1F)N1CCN(C(=O)C2CC2)CC1 [Olaparib] (partner 8 µM)
# Procedure, shortened: as §1
# [3] = compound: Cc1ccccc1C(C(=O)NC1CCCCC1)N(C(=O)Cn1ccnc1C)c1cccc(F)c1 [IDH-C35] + C[C@@H](Oc1cc(-c2cnn(C3CCNCC3)c2)cnc1N)c1c(Cl)ccc(F)c1Cl [Crizotinib] (partner 1 µM)
# Procedure, shortened: as §1
# [4] = compound: Cc1ccccc1C(C(=O)NC1CCCCC1)N(C(=O)Cn1ccnc1C)c1cccc(F)c1 [IDH-C35] + COc1cc2c(Oc3ccc(NC(=O)C4(C(=O)Nc5ccc(F)cc5)CC4)cc3F)ccnc2cc1OCCCN1CCOCC1 [Foretinib] (partner 0.25 µM)
# Procedure, shortened: as §1
Cell Line,relative viability ([1]; first compound 0.0025 µM),relative viability ([1]; first compound 0.007906 µM),relative viability ([1]; first compound 0.025 µM),relative viability ([1]; first compound 0.07906 µM),relative viability ([1]; first compound 0.25 µM),relative viability ([2]; first compound 0.0025 µM),relative viability ([2]; first compound 0.007906 µM),relative viability ([2]; first compound 0.025 µM),relative viability ([2]; first compound 0.07906 µM),relative viability ([2]; first compound 0.25 µM),relative viability ([3]; first compound 0.08 µM),relative viability ([3]; first compound 0.253 µM),relative viability ([3]; first compound 0.8 µM),relative viability ([3]; first compound 2.53 µM),relative viability ([3]; first compound 8 µM),relative viability ([4]; first compound 0.08 µM),relative viability ([4]; first compound 0.253 µM),relative viability ([4]; first compound 0.8 µM),relative viability ([4]; first compound 8 µM),relative viability ([4]; first compound 2.53 µM)
NCI-H2087,1.43,1.37,1.15,1.13,1.3,0.67,0.661,0.598,0.727,0.701,0.91,0.898,0.843,0.902,0.841,0.953,0.924,1.15,1.17,
NCI-H2126,1.06,1.08,0.943,0.867,1.05,0.962,0.951,0.874,0.865,0.914,0.996,1.02,1,0.981,0.992,1.14,1.22,1.15,1.06,1.14
NCI-H2170,0.899,0.925,0.854,0.895,0.906,0.582,0.636,0.676,0.597,0.666,1.25,1.2,1.14,1.17,1.22,0.98,0.97,1.1,0.951,0.937
NCI-H2347,0.739,0.697,0.734,0.718,0.667,0.574,0.624,0.468,0.508,0.587,0.71,0.695,0.713,0.762,0.619,1.19,0.992,0.799,1.01,0.955
NCI-H2405,0.793,0.778,0.573,0.69,0.678,0.876,0.806,0.885,0.749,0.875,0.837,0.841,0.852,0.829,0.797,1.04,1.04,1.06,1.05,1.14
NCI-H3122,1.03,1.09,1.02,0.973,1.02,0.62,0.659,0.64,0.618,0.628,0.292,0.299,0.295,0.252,0.27,0.919,0.984,0.915,0.958,0.928
PC-3 [JPC-3],0.872,0.76,0.69,0.976,0.806,1.19,0.794,1.14,1.07,1.3,1.01,0.919,0.929,1.03,0.965,1,1.01,1.05,0.982,1.11
PC-14,0.33,0.371,0.332,0.374,0.306,0.295,0.203,0.239,0.25,0.368,0.886,0.845,0.837,0.88,0.835,1.03,0.909,0.978,0.889,0.988
RERF-LC-KJ,1.01,1.16,0.888,1.1,1.01,0.958,0.832,1.04,0.926,0.883,0.887,0.822,0.794,0.904,0.763,0.941,0.853,0.968,0.888,0.867
